pIC50: −log10 of the molar value.
Columns and labels:
[1] = system: OPM-2 human multiple myeloma cell line; experiment: Cell Viability Assay (OPM-2 10 FBS); assay type: cell-based; settings: OPM-2 cells, CellTiter-Glo
Method in brief: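 IC50 from 4-parameter logistic fit of CellTiter-Glo luminescence. 3000 cells/well, 10% FBS medium, serial compound dilutions, 16 h, 37 °C/5% CO2; read 25 min post-reagent.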

[2] = biological target: T1, Mcl-1/Bim interaction, recombinant human Mcl-1 (171-327) (Homo sapiens, UniProt Q07820); experiment: Cell free Mcl-1: Bim Affinity Assay (Mcl-1 HTRF); assay type: binding
T1 construct: made in house
T1 sequence (Q07820 171-327): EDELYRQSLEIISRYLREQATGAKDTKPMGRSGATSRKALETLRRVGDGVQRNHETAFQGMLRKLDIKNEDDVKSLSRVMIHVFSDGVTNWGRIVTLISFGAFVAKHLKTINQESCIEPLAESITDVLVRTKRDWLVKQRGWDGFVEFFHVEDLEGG
Method in brief: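 Compounds were mixed with the protein and a biotinylated Bim peptide spanning human residues 51-76. Plates were left overnight, then TR-FRET signal was measured. A four-parameter sigmoidal model applied to duplicate competition data gave IC50.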

[3] = Homo sapiens, OPM-2, 16 h, 16 h
[4] = TR-FRET, 0.1 nM Mcl-1 (171-327), 0.05 nM biotin-Bim (51-76)
[5] = Homo sapiens, OPM-2, 16 h, 16 h incubation
[6] = cell free Mcl-1:Bim TR-FRET, recombinant human Mcl-1 (171-327)

SMILES | pIC50 [1, 3] | pIC50 [2, 4] | pIC50 [1, 5] | pIC50 ([1]; 16 h) | pIC50 [2, 6]
COCCN1[C@@H](C)C/C=C/[C@H](OC)[C@@H]2CC[C@H]2CN2C[C@@]3(CCCc4cc(Cl)ccc43)COc3ccc(cc32)C(=O)NS1(=O)=O [Example 27, (1S,3′R,6′R,7′S,8′E,11′S)-6-chloro-7′-methoxy-12′-(2-methoxyethyl)-11′-methyl-3,4-dihydro-2H,15′H-spiro[naphthalene-1,22′-[20]oxa[13]thia[1,12,14]triazatetracyclo[14.7.2.0^3,6.0^19,24]pentacosa[8,16,18,24]tetraen]-15′-one 13,13′-dioxide] | 6.01 | 9.37 |  |  | 
C[C@@H]1CC/C=C/[C@H](OCc2nnn(C)n2)[C@@H]2CC[C@H]2CN2C[C@@]3(CCCc4cc(Cl)ccc43)COc3ccc(cc32)C(=O)NS1(=O)=O [Example 957, (1S,3′R,6′R,7′S,8′E,12′R)-6-chloro-12′-methyl-7′-((2-methyl-2H-tetrazol-5-yl)methoxy)-3,4-dihydro-2H,15′H-spiro[naphthalene-1,22′-[20]oxa[13]thia[1,14]diazatetracyclo[14.7.2.0^3,6.0^19,24]pentacosa [8,16,18,24]tetraen]-15′-one 13′,13′-dioxide] |  | 9.36 | 6.51 |  | 
O=C1NS(=O)(=O)NCC/C=C\[C@H](O)[C@@H]2CC[C@H]2CN2C[C@@]3(CCCc4cc(Cl)ccc43)COc3ccc1cc32 [Example 36, (1S,3′R,6′R,7′S,8′Z)-6-chloro-7′-hydroxy-3,4-dihydro-2H,15′H-spiro[naphthalene-1,22′-[20]oxa[13]thia[1,12,14]triazatetracyclo[14.7.2.0^3,6.0^19,24]pentacosa[8,16,18,24]tetraen]-15′-one 13′,13′-dioxide] | 5.59 | 9.27 |  |  | 
C[C@H]1/C=C/[C@@H](O)[C@@H]2CC[C@H]2CN2C[C@@]3(CCCc4cc(Cl)ccc43)COc3ccc(cc32)C(=O)NS(=O)(=O)CC1(C)C (single isomer, unassigned) [Example 494] |  |  |  | 5.43 | 8.06
CCOC(=O)CCO[C@H]1/C=C/CC[C@@H](CC)S(=O)(=O)NC(=O)c2ccc3c(c2)N(C[C@@H]2CC[C@H]21)C[C@@]1(CCCc2cc(Cl)ccc21)CO3 [Example 1009, ethyl 3-(((1S,3′R,6′R,7′S,8′E,12′R)-6-chloro-12′-ethyl-13′,13′-dioxido-15′-oxo-3,4-dihydro-2H-spiro[naphthalene-1,22′-[20]oxa[13]thia[1,14]diazatetracyclo[14.7.2.0^3,6.0^19,24]pentacosa [8,16,18,24]tetraen]-7′-yl)oxy)propanoate] |  | 8.91 | 6.15 |  | 
CCN1[C@H](C)C/C=C\[C@H](O)[C@@H]2CC[C@H]2CN2C[C@@]3(CCCc4cc(Cl)ccc43)COc3ccc(cc32)C(=O)NS1(=O)=O (single isomer, unassigned) [Example 60] |  | 8.39 |  | 5.57 | 
CO[C@H](C)C[C@@H]1[C@@H](C)C/C=C/[C@H](O)[C@@H]2CC[C@H]2CN2C[C@@]3(CCCc4cc(Cl)ccc43)COc3ccc(cc32)C(=O)NS1(=O)=O (single isomer, unassigned) [Example 540] |  |  |  | 7.03 | 9.63
C[C@@H]1C[C@@H](C)/C=C/[C@H](O)[C@@H]2CC[C@H]2CN2C[C@@]3(CCCc4cc(Cl)ccc43)COc3ccc(cc32)C(=O)NS1(=O)=O [Example 1014, (1S,3′R,6′R,7′S,8′E,10′R,12′R)-6-chloro-7′-hydroxy-10′,12′-dimethyl-3,4-dihydro-2H,15′H-spiro[naphthalene-1,22′-[20]oxa[13]thia[1,14]diazatetracyclo[14.7.2.0^3,6.0^19,24]pentacosa [8,16,18,24]tetraen]-15′-one 13′,13′-dioxide] |  | 9.57 | 6.48 |  | 
CO[C@H](C)C[C@H]1CC/C=C/[C@H](O)[C@@H]2CC[C@H]2CN2C[C@@]3(CCCc4cc(Cl)ccc43)COc3ccc(cc32)C(=O)NS1(=O)=O (single isomer, unassigned) [Example 514] |  |  |  | 6.78 | 9.41
CN(C)CCNC(=O)CO[C@@H]1/C=C/CCCS(=O)(=O)NC(=O)c2ccc3c(c2)N(C[C@@H]2CC[C@H]21)C[C@@]1(CCCc2cc(Cl)ccc21)CO3 [Example 212, 2-(((1S,3′R,6′R,7′R,8′E)-6-chloro-13′,13′-dioxido-15′-oxo-3,4-dihydro-2H-spiro[naphthalene-1,22′-[20]oxa[13]thia[1,14]diazatetracyclo[14.7.2.0^3,6.0^19,24]pentacosa [8,16,18,24]tetraen]-7′-yl)oxy)-N-(2-(dimethylamino)ethyl)acetamide] | 4.74 | 8.53 |  |  | 
C[C@@H]1[C@@H](C)C/C=C/[C@H](OCCCO)[C@@H]2CC[C@H]2CN2C[C@@]3(CCCc4cc(Cl)ccc43)COc3ccc(cc32)C(=O)NS1(=O)=O [Example 509, (1S,3′R,6′R,7′S,8′E,11′S,12′R)-6-chloro-7′-(3-hydroxypropoxy)-11′,12′-dimethyl-3,4-dihydro-2H,15′H-spiro[naphthalene-1,22′-[20]oxa[13]thia[1,14]diazatetracyclo[14.7.2.0^3,6.0^19,24]pentacosa [8,16,18,24]tetraen]-15′-one 13′,13′-dioxide] | 6.63 |  |  |  | 9.73
COCCO[C@H]1/C=C/CCN(CCOC)S(=O)(=O)NC(=O)c2ccc3c(c2)N(C[C@@H]2CC[C@H]21)C[C@@]1(CCCc2cc(Cl)ccc21)CO3 [Example 48, (1S,3′R,6′R,7′S,8′E)-6-chloro-7′-(2-methoxyethoxy)-12′-(2-methoxyethyl)-3,4-dihydro-2H,15′H-spiro[naphthalene-1,22′-[20]oxa[13]thia[1,12,14]triazatetracyclo[14.7.2.0^3,6.0^19,24]pentacosa[8,16,18,24]tetraen]-15′-one 13′,13′-dioxide] | 6.28 | 9.25 |  |  | 
COCCOCC[C@@H]1[C@@H](C)C/C=C/[C@H](O)[C@@H]2CC[C@H]2CN2C[C@@]3(CCCc4cc(Cl)ccc43)COc3ccc(cc32)C(=O)NS1(=O)=O (single isomer, unassigned) [Example 401] |  | 9.27 |  | 6.34 | 
CO[C@H]1/C=C/CCN(C)S(=O)(=O)NC(=O)c2ccc3c(c2)N(C[C@@H]2CC[C@H]21)C[C@@]1(CCCc2cc(Cl)ccc21)CO3 (single isomer, unassigned) [Example 47] | 5.89 | 9.20 |  |  | 
C[C@@H]1[C@@H](C)C/C=C/[C@H](OCC(=O)N(C)CCN(C)C)[C@@H]2CC[C@H]2CN2C[C@@]3(CCCc4cc(Cl)ccc43)COc3ccc(cc32)C(=O)NS1(=O)=O [Example 300, 2-(((1S,3′R,6′R,7′S,8′E,11′S,12′R)-6-chloro-11′,12′-dimethyl-13′,13′-dioxido-15′-oxo-3,4-dihydro-2H-spiro[naphthalene-1,22′-[20]oxa[13]thia[1,14]diazatetracyclo[14.7.2.0^3,6.0^19,24]pentacosa [8,16,18,24]tetraen]-7′-yl)oxy)-N-(2-(dimethylamino)ethyl)-N-methylacetamide] | 6.09 | 9.62 |  |  | 
COCC[C@H]1C[C@H](C)/C=C/[C@H](O)[C@@H]2CC[C@H]2CN2C[C@@]3(CCCc4cc(Cl)ccc43)COc3ccc(cc32)C(=O)NS1(=O)=O (single isomer, unassigned) [Example 479] |  |  |  | 5.09 | 8.27
C[C@H]1/C=C/[C@H](O)[C@@H]2CC[C@H]2CN2C[C@@]3(CCCc4cc(Cl)ccc43)COc3ccc(cc32)C(=O)NS(=O)(=O)C1 (single isomer, unassigned) [Example 164] |  | 8.84 |  | 4.66 | 
CC[C@@H]1CC/C=C/[C@H](OC(C)=O)[C@@H]2CC[C@H]2CN2C[C@@]3(CCCc4cc(Cl)ccc43)COc3ccc(cc32)C(=O)NS1(=O)=O [Example 426, (1S,3′R,6′R,7′S,8′E,12′R)-6-chloro-12′-ethyl-13′,13′-dioxido-15′-oxo-3,4-dihydro-2H-spiro[naphthalene-1,22′-[20]oxa[13]thia[1,14]diazatetracyclo[14.7.2.0^3,6.0^19,24]pentacosa [8,16,18,24]tetraen]-7′-yl acetate] | 6.03 | 8.68 |  |  | 
C[C@@H]1[C@@H](C)C[C@H](CC#N)/C=C/[C@@H]2CC[C@H]2CN2C[C@@]3(CCCc4cc(Cl)ccc43)COc3ccc(cc32)C(=O)NS1(=O)=O [Example 1075, ((1S,3′R,6′S,7′E,9′R,11′S,12′R)-6-chloro-11′,12′-dimethyl-13′,13′-dioxido-15′-oxo-3,4-dihydro-2H-spiro[naphthalene-1,22′-[20]oxa[13]thia[1,14]diazatetracyclo[14.7.2.0^3,6.0^19,24]pentacosa [7,16,18,24]tetraen]-9′-yl)acetonitrile] |  | 8.21 | 5.67 |  | 
O=C1NS(=O)(=O)[C@H]2CCC[C@@H](/C=C/[C@H](O)[C@@H]3CC[C@H]3CN3C[C@@]4(CCCc5cc(Cl)ccc54)COc4ccc1cc43)C2 (single isomer, unassigned) [Example 110] |  | 8.87 |  | 5.25 | 
C[C@@H]1CS(=O)(=O)NC(=O)c2ccc3c(c2)N(C[C@@H]2CC[C@H]2[C@@H]2C[C@H](CCO2)O1)C[C@@]1(CCCc2cc(Cl)ccc21)CO3 (single isomer, unassigned) [Example 921] |  |  |  | 5.04 | 8.68
CC[C@@H]1CC/C=C/[C@H](OCc2ncccn2)[C@@H]2CC[C@H]2CN2C[C@@]3(CCCc4cc(Cl)ccc43)COc3ccc(cc32)C(=O)NS1(=O)=O [Example 977, (1S,3′R,6′R,7′S,8′E,12′R)-6-chloro-12′-ethyl-7′-(2-pyrimidinylmethoxy)-3,4-dihydro-2H,15′H-spiro[naphthalene-1,22′-[20]oxa[13]thia[1,14]diazatetracyclo[14.7.2.0^3,6.0^19,24]pentacosa [8,16,18,24]tetraen]-15′-one 13′,13′-dioxide] |  | 9.48 | 6.58 |  | 

Reference: patent publication US12091425B2 (AMGEN INC., priority 2016, dated 2024)
